Laboratory results from PubChem BioAssay AID504313 (Emory University Molecular Libraries Screening Center, 2011).
Active and inactive are the calls of the source. No rule for the calls is given here.

Each compound was assayed against X-box-binding protein 1 (Homo sapiens) (UniProt P17861) (assay: XBP1 reporter suppression in cells – counter-screen, dose response (AID 504313;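 also: CHO cells carrying an XBP1 reporter stimulated with tunicamycin; potency is for inhibition of the tunicamycin-induced reporter signal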)). Settings: XBP1 reporter cell assay, percent of control.
With `C=C(C)Cn1c(N2CCC(Cc3ccccc3)CC2)nc2c1c(=O)[nH]c(=O)n2C` the IC50 was > 10 µM (inactive).
`CCc1ccc(/C=c2\s/c(=C\C(=O)C(C)(C)C)[nH]c2=O)cc1` was tested, and the IC50 was “inactive”.
With `CS(=O)(=O)c1ncc(Cl)c(C(=O)Nc2ccc(N3CCOCC3)cc2)n1` the IC50 was “inactive”.
`CCN(CCO)c1ncnc2c1sc1nc(C(C)C)c3c(c12)CC(C)(C)OC3` was tested, and the IC50 was > 10 µM (inactive).
In the case of `CCOC(=O)c1sc(N=Nc2c(O)[nH]c(=O)[nH]c2=O)c(C(=O)OCC)c1C`, the IC50 is reported as > 10 µM (inactive).
With `CC1(c2ccccc2)CC(C)(C)N2C(=O)/C(=C3\SC(=S)NC3=O)c3cccc1c32` (stereo not drawn) the IC50 was “inactive”.
For `CN(C)c1ccc(C(CNS(=O)(=O)c2ccc(F)c(F)c2)c2c[nH]c3ccccc23)cc1` (stereo not drawn), the IC50 was “inactive”.
With `O=C(N/N=C/c1cccs1)c1cccc(NC(=O)c2ccc(Cl)cc2)c1` the IC50 was “inactive”.
For `O=C1C(Cl)=C(N2CCCCC2)C(=O)C(Cl)=C1c1cnc(N2CCCCC2)s1`, the IC50 was “inactive”.
Work on `CCOc1cc(/C=C\[N+](=O)[O-])ccc1OCC(=O)Nc1ccccc1C` yielded an IC50 of 4.59 µM.
In the case of `COC(=O)c1ccc2c(c1)C(C)(C)C(/C=C/c1ccc(O)cc1)=[N+]2C`, the IC50 is reported as > 10 µM (inactive).
In the case of `Cc1cccc(N2CCN(C(=O)CS(=O)(=O)Cc3nc(-c4ccccc4F)oc3C)CC2C)c1` (stereo not drawn), the IC50 is reported as > 10 µM (inactive).
With `CCOc1cccc(C(=O)Nc2cccc(-c3nnc(-c4ccc(C)cc4)o3)c2)c1` the IC50 was > 10 µM (inactive).
For `CC[n+]1c(/C=C2\Sc3ccccc3N2C)ccc2cccc(C)c21`, the IC50 was 0.24 µM.
`O=C1C=CC(=O)N1N(c1ccccc1)c1ccccc1` was tested, and the IC50 was > 10 µM (inactive).
Work on `CC(C)CCn1c(=O)c(C(=O)N/N=C/c2cccc(F)c2)c(O)c2ccccc21` yielded an IC50 of 3.49 µM.
With `C/C=C(\C)C(=O)OC1C(C)=C2C(C1OC(=O)CCCCC)C(C)(OC(C)=O)CC(OC(=O)CCC)C1(O)C2OC(=O)C1(C)O` (stereo not drawn) the IC50 was 5.03 µM.
In the case of `CCOc1cc(S(=O)(=O)Nc2ccccc2CC)ccc1Cl`, the IC50 is reported as > 10 µM (inactive).
`COc1ccc(OC)c2sc(NC(=O)c3ccc(Cl)s3)nc12` was tested, and the IC50 was > 10 µM (inactive).
`Cc1nn(-c2ccccc2Cl)c(Cl)c1/C=N/Nc1nc2ccccc2s1` gave an IC50 of under 0.16 µM.
For `O=C1CC(c2ccccc2)CC(O)=C1C=Nc1cccc(Cl)c1` (stereo not drawn), the IC50 was > 10 µM (inactive).
In the case of `O=C(CCl)Nc1cc(-c2ccccc2)nn1-c1ccccc1`, the IC50 is reported as “inactive”.
For `C#CC(=O)N(c1cccc(OC)c1)C(C(=O)NC1CCCC1)c1cccs1` (stereo not drawn), the IC50 was “inactive”.
With `Cc1ccc2nc(-c3cc(-c4ccccc4)no3)cn2c1` the IC50 was > 10 µM (inactive).
For `Cc1ccc(NC(=O)O/N=C/c2c(C)nn(C(C)(C)C)c2C)cc1Cl`, the IC50 was under 0.16 µM.
`O=c1c2ccccc2nc2n1CCN2Cc1ccc(Cl)cc1` was tested, and the IC50 was > 10 µM (inactive).
For `CCOC(=O)c1cnc(-n2nc(C)cc2C)nc1Nc1ccc(O)cc1`, the IC50 was 1.26 µM.
`CCOC(=O)c1nc(S(C)(=O)=O)ncc1Cl` was tested, and the IC50 was “inactive”.
For `CN1CCN(CC(=O)N2CCn3c4c(c5cc(C6CCCCC6)ccc53)CCCC42)CC1` (stereo not drawn), the IC50 was > 10 µM (inactive).
With `COc1ccc([C@H]2Oc3cc(O)cc(O)c3C(=O)C2[C@@H]2C(=O)c3c(O)cc(O)cc3O[C@@H]2c2ccc(OC)cc2)cc1` (stereo partly drawn) the IC50 was > 10 µM (inactive).
With `C/C(N)=C(/C#N)C(=O)COC(=O)C1CCC(C(C)(C)C)CC1` (stereo not drawn) the IC50 was > 10 µM (inactive).
For `OC(COCC(F)(F)C(F)(F)C(F)(F)C(F)F)Cn1c2ccccc2c2ccccc21` (stereo not drawn), the IC50 was “inactive”.
In the case of `O=C(/C=C\c1cn(-c2ccccc2)nc1-c1ccccc1)Nc1nccs1`, the IC50 is reported as “inactive”.
In the case of `COc1ccccc1-c1cc(C(F)(F)F)nc(S(=O)(=O)CCCC(=O)Nc2cc(C)on2)n1`, the IC50 is reported as “inactive”.
`CC(C)(C)c1ccc(OCCNC(=S)Nc2ccccc2)cc1` was tested, and the IC50 was “inactive”.
With `Cn1c(=O)c([N+](=O)[O-])c(Cl)c2ccccc21` the IC50 was “inactive”.
With `O=C(C1=C(c2ccccc2)C(=O)c2ccccc2C1=O)c1ccccc1` the IC50 was “inactive”.
With `NC(N)=N/N=C/c1cn(-c2ccccc2)nc1-c1cccs1` the IC50 was > 10 µM (inactive).
For `O=[N+]([O-])c1ccc(S(=O)(=O)CC(CN2CCCCC2)N2CCCCC2)cc1` (stereo not drawn), the IC50 was “inactive”.
With `COC(=O)c1sc(-c2ccc(C(C)(C)C)cc2)cc1NC(=O)c1ccccc1C(=O)O` the IC50 was > 10 µM (inactive).
For `NC(=O)CC(NC(=O)Cc1cccc2ccccc12)c1ccc(NCc2cc(F)ccc2F)c([N+](=O)[O-])c1` (stereo not drawn), the IC50 was > 10 µM (inactive).
`CCOc1ccc(C(=O)C(CCC(CN(C)C)C(=O)c2ccc(OCC)cc2)CN(C)C)cc1` (stereo not drawn) was tested, and the IC50 was “inactive”.
In the case of `CCc1ccc(-c2nc(CN3CCC(C(=O)NCCN(CC)c4ccccc4)CC3)c(C)o2)cc1`, the IC50 is reported as > 10 µM (inactive).
For `CCCCn1c(=O)[nH]c(=O)c2c1nc(-c1ccc(OCCC)c(OCC)c1)n2C`, the IC50 was > 10 µM (inactive).
In the case of `CCc1ccc2[nH]c(=O)c(C(c3nnnn3Cc3ccco3)N3CCC(C)CC3)cc2c1` (stereo not drawn), the IC50 is reported as > 10 µM (inactive).
With `O=C(c1ccc(Cl)cc1)c1c[nH]c(C(=O)NNc2cccc(Cl)n2)c1` the IC50 was > 10 µM (inactive).
With `CC(C)CCSc1nc2c(c(=O)[nH]c(=O)n2C)n1CCCc1ccccc1` the IC50 was > 10 µM (inactive).
With `O=C(Nc1ccc(Oc2ccccc2)cc1)C1CCN(c2c3c(nc4ncnn24)CCC3)CC1` the IC50 was > 10 µM (inactive).
